Results reported in patent US9000032B2, “Substituted cyclopentenes as therapeutic agents” (Allergan, Inc., priority 2013, dated 2015).

Assays:
hEP3A/Gqi5 = biological target: T1, hEP3A/Gqi5 (Homo sapiens, UniProt P43115); assay: FLIPR calcium signal, EP3; type: cell-based; settings: read-out: OTHER RECEPTORS Ca2+ EC50: EP3
T1 construct: expressed in transfected cells
T1 sequence (P43115 1-390): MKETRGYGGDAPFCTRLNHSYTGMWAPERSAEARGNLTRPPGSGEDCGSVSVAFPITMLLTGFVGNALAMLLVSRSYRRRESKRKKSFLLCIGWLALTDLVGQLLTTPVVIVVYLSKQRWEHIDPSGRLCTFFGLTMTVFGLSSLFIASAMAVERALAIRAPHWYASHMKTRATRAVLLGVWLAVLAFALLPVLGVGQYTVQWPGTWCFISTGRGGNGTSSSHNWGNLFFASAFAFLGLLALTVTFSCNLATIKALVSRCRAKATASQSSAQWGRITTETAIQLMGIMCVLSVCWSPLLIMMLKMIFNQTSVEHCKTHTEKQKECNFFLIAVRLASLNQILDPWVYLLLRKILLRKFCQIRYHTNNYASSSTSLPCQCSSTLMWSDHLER
Experimental: (§1) HEK-293(EBNA) cells, stably expressing one type or subtype of recombinant human prostaglandin receptors (prostaglandin receptors expressed: hDP/Gqs5; hEP1, hEP2/Gqs5; hEP3A/Gqi5; hEP4/Gqs5; hFP; hIP; hTP), were cultured in 100 mm culture dishes in high-glucose DMEM medium containing 10% fetal bovine serum, 2 mM I-glutamine, 250 μg/ml geneticin (G418) and 200 μg/ml hygromycin B as selection markers, and 100 units/ml penicillin G, 100 μg/ml streptomycin and 0.25 μg/ml amphotericin B.
(§2) Cells were seeded at a density of 5×10^4 cells per well in Biocoat® Poly-D-lysine-coated black-wall, clear-bottom 96-well plates (Becton-Dickinson) and allowed to attach overnight in an incubator at 37° C. Cells were then washed two times with HBSS-HEPES buffer (Hanks Balanced Salt Solution without bicarbonate and phenol red, 20 mM HEPES, pH 7.4) using a Denley Cellwash plate washer (Labsystems). After 45 minutes of dye-loading in the dark, using the calcium-sensitive dye Fluo-4 AM at a final concentration of 2 μM, plates were washed four times with HBSS-HEPES buffer to remove excess dye leaving 100 μl, in each well. Plates were re-equilibrated to 37° C. for a few minutes.
(§3) Cells were excited with an Argon laser at 488 nm, and emission was measured through a 510-570 nm bandwidth emission filter (FLIPR™, Molecular Devices, Sunnyvale, Calif.). Drug solution was added in a 50 μL volume to each well to give the desired final concentration. The peak increase in fluorescence intensity was recorded for each well. On each plate, four wells each served as negative (HBSS-HEPES buffer) and positive controls (standard agonists: BW245C (hDP); PGE2(hEP1, hEP2/Gqs5; hEP3A/Gqi5; hEP4/Gqs5); PGF2α (hFP); carbacyclin (hIP); U-46619 (hTP), depending on receptor). The peak fluorescence change in each drug-containing well was then expressed relative to the controls.
(§4) Compounds were tested in a high-throughput (HTS) or concentration-response (CoRe) format. In the HTS format, forty-four compounds per plate were examined in duplicates at a concentration of 10^−5 M. To generate concentration-response curves, four compounds per plate were tested in duplicates in a concentration range between 10^−5 and 10^−11. The duplicate values were averaged. In either, HTS or CoRe format each compound was tested on at least 3 separate plates using cells from different passages to give an n≧3.

EP2 [1] = biological target: T2, EP2 (Homo sapiens, UniProt P43116); assay: cAMP assay, HEK-EBNA cells expressing EP2; type: cell-based; design: expressed in transfected cells; host or cells: HEK-EBNA cells
T2 sequence (P43116 whole entry): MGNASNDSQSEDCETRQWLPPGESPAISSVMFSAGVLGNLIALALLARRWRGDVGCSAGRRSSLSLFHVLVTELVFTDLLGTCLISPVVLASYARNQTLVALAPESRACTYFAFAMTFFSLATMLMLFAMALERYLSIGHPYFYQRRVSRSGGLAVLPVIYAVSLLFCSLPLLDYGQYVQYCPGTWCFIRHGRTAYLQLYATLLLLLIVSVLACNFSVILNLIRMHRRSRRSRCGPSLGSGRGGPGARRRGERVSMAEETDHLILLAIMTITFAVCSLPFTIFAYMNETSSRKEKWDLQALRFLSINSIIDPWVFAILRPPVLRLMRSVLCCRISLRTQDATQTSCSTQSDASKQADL
Experimental: A 384-well drug plate was prepared to contain 6 test compounds, PGE2 and cAMP in 16 serial dilutions in triplicate, using a Biomek station. HEK-EBNA cells expressing a target PG receptor subtype (EP2 or EP4) were suspended in a stimulation buffer (HBSS, 0.1% BSA, 0.5 mM IBMX and 5 mM HEPES, pH 7.4) in a density of 10^4 cells/5 μL. The reaction was initiated by mixing 5 μL drug dilutions with 5 μL of HEK-EBNA cells in a well, carried out for 30 min at room temperature, and followed by the addition of 5 μL anti-cAMP acceptor beads in the control buffer with Tween-20 (25 mM NaCl, 0.03% Tween-20, 5 mM HEPES, pH 7.4). After 30 min in the dark at room temperature, the mixtures were incubated with 15 μL biotinylated-cAMP/strepavidin donor beads in Lysis/Detection buffer (0.1% BSA, 0.3% Tween-20 and 5 mM HEPES, pH 7.4) for 45 min at the room temperature. Fluorescence changes were read using a Fusion-alpha HT microplate reader.

hDP/Gqs5 = biological target: T3, hDP/Gqs5 (Homo sapiens, UniProt Q13258); assay: FLIPR calcium signal, DP; type: cell-based; settings: NA listed after 'NA:', read-out: OTHER RECEPTORS Ca2+ EC50: DP
T3 construct: expressed in transfected cells
T3 sequence (Q13258 1-359): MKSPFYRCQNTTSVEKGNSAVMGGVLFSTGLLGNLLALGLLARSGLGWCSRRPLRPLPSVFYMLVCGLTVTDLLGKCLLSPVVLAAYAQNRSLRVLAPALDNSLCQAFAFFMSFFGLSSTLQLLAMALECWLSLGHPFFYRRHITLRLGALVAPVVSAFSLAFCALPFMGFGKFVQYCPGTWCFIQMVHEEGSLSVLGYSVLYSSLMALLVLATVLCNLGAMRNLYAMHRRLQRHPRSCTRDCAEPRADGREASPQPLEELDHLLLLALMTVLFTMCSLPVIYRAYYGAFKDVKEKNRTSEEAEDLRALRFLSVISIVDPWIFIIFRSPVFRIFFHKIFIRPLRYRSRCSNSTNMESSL
Experimental: as §1, §2, §3
(§5) Compounds were tested in a high-throughput (HTS) or concentration-response (CoRe) format. […]

EP4 receptors = biological target: T4, EP4 receptors (Homo sapiens, UniProt P35408); assay: Radioligand binding, [3H]PGE2, EP4; settings: [3H]PGE2 competition, HEK-293 cells expressing EP4; read-out: EP4 Ki EC50
T4 construct: expressed in transfected cells; membrane fraction
T4 sequence (P35408 whole entry): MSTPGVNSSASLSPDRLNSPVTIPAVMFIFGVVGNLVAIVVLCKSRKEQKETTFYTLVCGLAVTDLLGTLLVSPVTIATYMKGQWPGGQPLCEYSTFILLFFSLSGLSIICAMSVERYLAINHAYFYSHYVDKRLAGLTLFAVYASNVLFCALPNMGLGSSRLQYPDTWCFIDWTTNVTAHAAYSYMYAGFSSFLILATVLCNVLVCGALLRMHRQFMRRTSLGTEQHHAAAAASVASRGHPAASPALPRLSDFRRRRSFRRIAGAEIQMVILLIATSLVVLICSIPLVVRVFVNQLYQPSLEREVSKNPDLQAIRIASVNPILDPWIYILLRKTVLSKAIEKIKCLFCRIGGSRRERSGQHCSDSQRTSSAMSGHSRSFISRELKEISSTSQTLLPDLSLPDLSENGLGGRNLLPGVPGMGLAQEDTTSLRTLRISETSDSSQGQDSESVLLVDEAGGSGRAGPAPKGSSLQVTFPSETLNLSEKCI
Experimental: (§6) HEK-293 cells stably expressing the human or feline FP receptor, or EP1, EP2, or EP4 receptors were washed with TME buffer, scraped from the bottom of the flasks, and homogenized for 30 sec using a Brinkman PT 10/35 polytron. TME buffer was added to achieve a final 40 ml volume in the centrifuge tubes (the composition of TME is 100 mM TRIS base, 20 mM MgCl2, […]; ION HCl is added to achieve a pH of 7.4).
(§7) The cell homogenate was centrifuged at 19000 rpm for 20 min at 4° C. using a Beckman Ti-60 rotor. The resultant pellet was resuspended in TME buffer to give a final 1 mg/ml protein concentration, as determined by Biorad assay. Radioligand binding competition assays vs. [^3H-]17-phenyl PGF2α (5 nM) were performed in a 100 μl volume for 60 min. Binding reactions were started by adding plasma membrane fraction. The reaction was terminated by the addition of 4 ml ice-cold TRIS-HCl buffer and rapid filtration through glass fiber GF/B filters using a Brandel cell harvester. The filters were washed 3 times with ice-cold buffer and oven dried for one hour.
(§8) [^3H-] PGE2 (specific activity 180 Ci mmol) was used as the radio ligand for EP receptors. [^3H] 17-phenyl PGF2α was employed for FP receptor binding studies. Binding studies employing EP1, EP2, EP4 and FP receptors were performed in duplicate in at least three separate experiments. A 200 μl assay volume was used. Incubations were for 60 min at 25° C. and were terminated by the addition of 4 ml of ice-cold 50 mM TRIS-HCl, followed by rapid filtration through Whatman GF/B filters and three additional 4 ml washes in a cell harvester (Brandel). Competition studies were performed using a final concentration of 5 nM [^3H]-PGE2, or 5 nM [^3H] 17-phenyl PGF2α and non-specific binding determined with 10^−5 M of unlabeled PGE2, or 17-phenyl PGF2α according to receptor subtype studied.

hEP4/Gqs5 = biological target: T5, hEP4/Gqs5 (Homo sapiens, UniProt P35408); assay: FLIPR calcium signal, EP4; type: cell-based; settings: HEK-293(EBNA) hEP4/Gqs5, read-out: EP4 Ca2+ EC50
T5 construct: expressed in transfected cells
T5 sequence (P35408 whole entry): as above
Experimental: as §1, §2, §3, §5

EP2 [2] = biological target: T2, EP2; assay: Competition radioligand binding, [3H]PGE2, EP2; design: expressed in transfected cells; membranes or whole cells; settings: [3H]PGE2 competition, HEK 293 cells expressing human EP2
Experimental: Competition binding experiments were performed in a medium containing Hank's balanced salt solution, Hepes 20 mM, pH 7.3, membranes (˜[…] protein) or 2×10^5 cells from HEK 293 cells stably expressing human EP2 receptors, [^3H]PGE2 (10 nM) and various concentrations of test compounds in a total volume of 300 μl. Reaction mixtures were incubated at 23° C. for 60 min, and were filtered over Whatman GF IB filters under vacuum. Filters were washed three times with 5 ml ice-cold buffer containing 50 mM Tris/HCl (PH 7.3). Non-specific binding was estimated in the presence of excess unlabeled PGE2 (10 μM). Binding data fitted to the binding model for a single class of binding sites, using nonlinear regression analysis. IC50 values thus obtained were converted to Ki using the equation of Ki=(IC50/(1+[L]/KD) where [L] represents PGE2 concentration (10 nM) and KD the dissociation constant for [^3H]PGE2 at human EP2 receptors (40 nM).
as §6, §7, §8

hEP2/Gqs5 = biological target: T6, hEP2/Gqs5 (Homo sapiens, UniProt P43116); assay: FLIPR calcium signal, EP2; type: cell-based; settings: HEK-293(EBNA) hEP2/Gqs5, read-out: EP2 Ca2+ EC50
T6 construct: expressed in transfected cells
T6 sequence (P43116 whole entry): as the sequence (P43116 whole entry) above
Experimental: as §1, §2, §3, §4

Row | EC50 (hEP3A/Gqi5) | EC50 (EP2 [1]) | EC50 (hDP/Gqs5) | Ki (EP4 receptors) | EC50 (hEP4/Gqs5) | Ki (EP2 [2]) | EC50 (hEP2/Gqs5) | SMILES
1 | 0.171 µM | 0.2 nM | 7.73 µM | 2820 nM | > 10 µM | 2 nM | 48 nM | C#CC1=C(c2ccc(C(O)CCCCC)cc2)[C@@H](CCCc2ccc(C(=O)O)s2)CC1 (single isomer, unassigned) [compound 1]
2 | 7.08 µM | 140 nM | – | 8190 nM | > 10 µM | 2530 nM | 513 nM | CCCCCC(O)c1ccc(C2=C(C#Cc3ccccc3)CC[C@@H]2CCCc2ccc(C(=O)O)s2)cc1 (stereo partly shown) [compound 4]
3 | 7.4 µM | 1.5 nM | 0.22 µM | 783 nM | > 10 µM | 17 nM | 0.5 nM | CCCCCC(O)c1ccc(C2=C(C#CCO)CC[C@@H]2CCCc2ccc(C(=O)O)s2)cc1 (stereo partly shown) [compound 3]
4 | 1.54 µM | – | > 10 µM | 712 nM | – | 7 nM | 22 nM | C#CC1=C(c2ccc(C(O)CCCCC)cc2)[C@@H](CCCc2ccc(C(=O)O)s2)CC1 (single isomer, unassigned) [compound 2]
